Measured values taken from US8802597B2, “Herbicidal pyrimidines” (E I du Pont de Nemours and Company, priority 2003, dated 2014).
Like-named read-outs stand apart in the source and are kept apart here.

How the values were obtained:
Test in all cases: Test C pre/postemergence
Assay type in all cases: in vivo
[1] = tested on: Surinam grass (Brachiaria decumbens); conditions: Urochloa decumbens; for pest or weed control at 125 g/ha: 125 g ai/ha; for pest or weed control at 500 g/ha: 500 g ai/ha; for pest or weed control at 250 g/ha: 250 g ai/ha
How it was run: (§1)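 Rating scale 0–100: 0 means no effect, 100 complete control; taken visually 12 to 14 days post-treatment versus controls. Pre- and postemergence greenhouse applications, postemergence at 1- to 4-leaf stage, non-phytotoxic solvent with surfactant as carrier.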

[2] = tested on: cocklebur (Xanthium strumarium); conditions: Xanthium strumarium; for pest or weed control at 62 g/ha: 62 g ai/ha; for pest or weed control at 125 g/ha: 125 g ai/ha; for pest or weed control at 250 g/ha: 250 g ai/ha; for pest or weed control at 500 g/ha: 500 g ai/ha
How it was run: as §1

[3] = tested on: common (oilseed) sunflower (Helianthus annuus); conditions: Helianthus annuus, pre-emergence, Preemergence, read-out: Plant response rating, Sunflower
How it was run: as §1

[4] = tested on: crabgrass (Digitaria sanguinalis); conditions: Digitaria sanguinalis; for pest or weed control at 62 g/ha: 62 g ai/ha; for pest or weed control at 125 g/ha: 125 g ai/ha; for pest or weed control at 250 g/ha: 250 g ai/ha; for pest or weed control at 500 g/ha: 500 g ai/ha
How it was run: as §1

[5] = tested on: giant foxtail (Setaria faberii); conditions: Setaria faberi; for pest or weed control at 125 g/ha: 125 g ai/ha; for pest or weed control at 500 g/ha: 500 g ai/ha; for pest or weed control at 62 g/ha: 62 g ai/ha; for pest or weed control at 250 g/ha: 250 g ai/ha
How it was run: as §1

[6] = tested on: johnsongrass (Sorghum halepense); conditions: Sorghum halepense; for pest or weed control at 62 g/ha: 62 g ai/ha; for pest or weed control at 125 g/ha: 125 g ai/ha; for pest or weed control at 250 g/ha: 250 g ai/ha; for pest or weed control at 500 g/ha: 500 g ai/ha
How it was run: as §1

[7] = post-emergence, Postemergence, scale 0 to 100, read-out: Plant response rating, Surinam Grass
[8] = pre-emergence, Preemergence, scale 0 to 100, read-out: Plant response rating, Surinam Grass
[9] = post-emergence, Postemergence, scale 0 to 100 (0 no effect, 100 complete control), read-out: Cocklebur plant response rating
[10] = post-emergence, Postemergence, scale 0 to 100, read-out: Plant response rating, Cocklebur
[11] = pre-emergence, Preemergence, scale 0 to 100, read-out: Plant response rating, Cocklebur
[12] = post-emergence, Postemergence, scale 0 to 100 (0 no effect, 100 complete control), read-out: Crabgrass plant response rating
[13] = post-emergence, Postemergence, scale 0 to 100, read-out: Plant response rating, Crabgrass
[14] = pre-emergence, Preemergence, scale 0 to 100, read-out: Plant response rating, Crabgrass
[15] = post-emergence, Postemergence, scale 0 to 100 (0 no effect, 100 complete control), read-out: Foxtail, Giant plant response rating
[16] = post-emergence, Postemergence, scale 0 to 100, read-out: Plant response rating, Foxtail, Giant
[17] = pre-emergence, Preemergence, scale 0 to 100, read-out: Plant response rating, Foxtail, Giant
[18] = post-emergence, Postemergence, scale 0 to 100 (0 no effect, 100 complete control), read-out: Johnsongrass plant response rating
[19] = post-emergence, Postemergence, scale 0 to 100, read-out: Plant response rating, Johnsongrass
[20] = pre-emergence, Preemergence, scale 0 to 100, read-out: Plant response rating, Johnsongrass

Nc1nc(C2CC2)nc(C(=O)OCc2ccccc2)c1Br [Compound 22, phenylmethyl 6-amino-5-bromo-2-cyclopropyl-4-pyrimidinecarboxylate]
pest or weed control at 125 g/ha ([1]; post-emergence, Postemergence, scale 0 to 100 (0 no effect, 100 complete control), read-out: Surinam Grass plant response rating): 60% | pest or weed control at 500 g/ha [1, 7]: 85% | pest or weed control at 62 g/ha ([1]; post-emergence, Postemergence, 62 g ai/ha, scale 0 to 100 (0 no effect, 100 complete control), read-out: Surinam Grass plant response rating): 55% | pest or weed control at 250 g/ha [1, 7]: 85% | pest or weed control at 125 g/ha [1, 8]: 90% | pest or weed control at 250 g/ha [1, 8]: 100% | pest or weed control at 500 g/ha [1, 8]: 100% | pest or weed control at 62 g/ha [2, 9]: 90% | pest or weed control at 125 g/ha [2, 9]: 90% | pest or weed control at 250 g/ha [2, 10]: 100% | pest or weed control at 500 g/ha [2, 10]: 100% | pest or weed control at 62 g/ha ([2]; pre-emergence, Preemergence, scale 0 to 100, 0 no effect, 100 complete control, read-out: Plant response rating, Cocklebur): 90% | pest or weed control at 125 g/ha [2, 11]: 95% | pest or weed control at 250 g/ha [2, 11]: 100% | pest or weed control at 500 g/ha [2, 11]: 100% | pest or weed control at 62 g/ha ([3]; 62 g ai/ha, scale 0 to 100, 0 no effect, 100 complete control): 90% | pest or weed control at 125 g/ha ([3]; 125 g ai/ha, scale 0 to 100): 95% | pest or weed control at 250 g/ha ([3]; 250 g ai/ha, scale 0 to 100): 100% | pest or weed control at 500 g/ha ([3]; 500 g ai/ha, scale 0 to 100): 100% | pest or weed control at 62 g/ha [4, 12]: 50% | pest or weed control at 125 g/ha [4, 12]: 55% | pest or weed control at 250 g/ha [4, 13]: 85% | pest or weed control at 500 g/ha [4, 13]: 85% | pest or weed control at 62 g/ha ([4]; pre-emergence, Preemergence, scale 0 to 100, 0 no effect, 100 complete control, read-out: Plant response rating, Crabgrass): 90% | pest or weed control at 125 g/ha [4, 14]: 95% | pest or weed control at 250 g/ha [4, 14]: 95% | pest or weed control at 500 g/ha [4, 14]: 100% | pest or weed control at 125 g/ha [5, 15]: 45% | pest or weed control at 500 g/ha [5, 16]: 60% | pest or weed control at 62 g/ha [5, 15]: 40% | pest or weed control at 250 g/ha [5, 16]: 50% | pest or weed control at 62 g/ha ([5]; pre-emergence, Preemergence, scale 0 to 100, 0 no effect, 100 complete control, read-out: Plant response rating, Foxtail, Giant): 10% | pest or weed control at 125 g/ha [5, 17]: 15% | pest or weed control at 250 g/ha [5, 17]: 20% | pest or weed control at 500 g/ha [5, 17]: 60% | pest or weed control at 62 g/ha [6, 18]: 40% | pest or weed control at 125 g/ha [6, 18]: 80% | pest or weed control at 250 g/ha [6, 19]: 80% | pest or weed control at 500 g/ha [6, 19]: 100% | pest or weed control at 62 g/ha ([6]; pre-emergence, Preemergence, scale 0 to 100, 0 no effect, 100 complete control, read-out: Plant response rating, Johnsongrass): 80% | pest or weed control at 125 g/ha [6, 20]: 100% | pest or weed control at 250 g/ha [6, 20]: 100% | pest or weed control at 500 g/ha [6, 20]: 100%
